{"source": "patent US9884067B2", "about": "“Androgen receptor down-regulating agents and uses thereof” (UNIVERSITY OF MARYLAND EASTERN SHORE, priority 2013, dated 2018)", "key": {"LNCaP cells": {"system": "LNCaP cells", "assay": "MTT colorimetric anti-proliferative assay", "assay_type": "cell-based, human", "description": "The cells were treated for 7 days with renewal of test compound and media on day 4. On the 7th day, medium was renewed and MTT (3-(4,5-dimethylthiazol-2-yl)-2,5-diphenyl-2H-tetrazolium bromide) (Sigma, St Louis, Mo., USA) solution (0.5 mg MTT per ml of media) was added to the medium such that the ratio of MTT: medium was 1:10. The cells were incubated with MTT for 2 hours. The medium was then aspirated and DMSO was added to solubilize the violet MTT-formazan product."}, "human CYP17A1 (CYP171dH)": {"molecular_target": "T1, human CYP17A1 (CYP171dH) (Homo sapiens, UniProt P05093)", "T1 sequence (P05093 with tags, fused parts or gaps limits assumed)": "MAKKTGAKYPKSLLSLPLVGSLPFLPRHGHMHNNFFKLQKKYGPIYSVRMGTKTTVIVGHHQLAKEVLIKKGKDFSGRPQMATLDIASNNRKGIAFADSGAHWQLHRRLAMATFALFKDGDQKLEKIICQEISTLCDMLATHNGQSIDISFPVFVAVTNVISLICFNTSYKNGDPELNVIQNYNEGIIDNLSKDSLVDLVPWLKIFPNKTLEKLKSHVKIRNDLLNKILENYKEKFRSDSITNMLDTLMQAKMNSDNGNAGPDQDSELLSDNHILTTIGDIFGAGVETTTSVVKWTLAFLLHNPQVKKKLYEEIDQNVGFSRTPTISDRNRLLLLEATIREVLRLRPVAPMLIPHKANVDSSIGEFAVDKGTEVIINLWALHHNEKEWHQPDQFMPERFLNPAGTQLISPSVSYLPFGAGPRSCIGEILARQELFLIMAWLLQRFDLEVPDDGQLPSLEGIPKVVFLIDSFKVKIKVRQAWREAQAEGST", "assay": "CYP17 inhibition studies", "assay_type": "biochemical", "conditions": "each in duplicate, from dose-response curves", "description": "Some compounds were evaluated for their ability to inhibit CYP17 enzyme. A truncated version of human CYP17A1 (CYP171dH) was expressed in E. coli and then purified to homogeneity."}, "AR [1]": {"molecular_target": "T2, AR (Homo sapiens, UniProt P10275, T878A)", "T2 construct": "host or cells: LNCaP", "T2 sequence (P10275 1-920 T878A)": "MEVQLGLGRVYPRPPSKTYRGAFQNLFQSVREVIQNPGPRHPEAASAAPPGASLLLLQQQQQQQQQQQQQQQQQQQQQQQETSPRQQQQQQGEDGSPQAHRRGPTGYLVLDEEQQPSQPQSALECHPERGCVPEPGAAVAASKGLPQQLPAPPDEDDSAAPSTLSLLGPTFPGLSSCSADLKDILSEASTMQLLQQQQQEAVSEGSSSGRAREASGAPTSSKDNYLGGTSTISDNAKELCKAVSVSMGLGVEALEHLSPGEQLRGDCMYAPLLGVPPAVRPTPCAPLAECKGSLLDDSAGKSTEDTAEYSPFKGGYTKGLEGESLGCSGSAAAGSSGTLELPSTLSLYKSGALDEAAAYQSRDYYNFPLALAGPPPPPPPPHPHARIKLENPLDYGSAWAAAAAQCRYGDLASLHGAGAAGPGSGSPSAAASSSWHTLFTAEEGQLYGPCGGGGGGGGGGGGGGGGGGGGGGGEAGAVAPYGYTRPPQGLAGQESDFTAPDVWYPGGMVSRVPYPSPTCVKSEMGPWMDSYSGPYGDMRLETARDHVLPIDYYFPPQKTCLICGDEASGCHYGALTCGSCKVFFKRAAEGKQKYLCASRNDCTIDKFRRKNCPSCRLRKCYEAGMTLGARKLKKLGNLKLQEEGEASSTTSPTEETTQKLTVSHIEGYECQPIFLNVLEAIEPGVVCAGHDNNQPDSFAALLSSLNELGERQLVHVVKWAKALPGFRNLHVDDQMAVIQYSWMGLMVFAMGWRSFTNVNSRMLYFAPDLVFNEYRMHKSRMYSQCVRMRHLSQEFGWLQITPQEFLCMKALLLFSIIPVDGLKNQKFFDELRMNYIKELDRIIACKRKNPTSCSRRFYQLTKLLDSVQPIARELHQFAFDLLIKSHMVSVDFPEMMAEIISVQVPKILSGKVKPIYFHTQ", "assay": "Immunocytochemical analysis of AR expression in LNCaP cells", "assay_type": "cell-based", "conditions": "5 μM for 48 h"}, "AR in LNCaP cells": {"molecular_target": "T3, AR in LNCaP cells (Homo sapiens, UniProt P10275, T878A)", "T3 sequence (P10275 1-920 T878A)": "T2 sequence (P10275 1-920 T878A)", "assay": "Whole cell competitive binding assay with [3H]R1881", "conditions": "read-out: inhibition of [3H]R1881 binding / displacement", "experimental": "The androgen receptor competitive binding assays were performed with the synthetic androgen methyltrienolone [^3H]R1881. […] To determine the kinetics of [^3H]R1881 binding to the LNCaP AR cells were plated (2-3×10^5 cells/well) in 24 well multiwell dishes in steroid-free medium and allowed to attach. […] Following a 2 hour incubation period at 37° C., cells were washed twice with ice-cold DPBS and solubilized in DPBS containing 0.5% SDS and 20% glycerol. Extracts were removed and cell associated radioactivity counted in a scintillation counter. The data was analyzed, including Kd and Bmax determination, by nonlinear regression using Graphpad Prism software (GraphPad Software, Inc, San Diego, Calif.). When the concentration of [^3H]R1881 required to almost saturate AR in both cell lines was established (5.0 nM), the ability of the test compounds (1 nM-10 μM) to displace [^3H]R1881 (5.0 nM) from the receptors was determined as described above. The IC50 of each compound was determined by nonlinear regression with Graphpad Prism software (GraphPad Software, Inc, San Diego, Calif.)."}, "AR-3 (also called AR-V7)": {"molecular_target": "T4, AR-3 (also called AR-V7) (Homo sapiens, UniProt P10275)", "T4 construct": "endogenous in cells; host or cells: CWR22Rv1", "T4 sequence (P10275 1-644 isoform P10275-3)": "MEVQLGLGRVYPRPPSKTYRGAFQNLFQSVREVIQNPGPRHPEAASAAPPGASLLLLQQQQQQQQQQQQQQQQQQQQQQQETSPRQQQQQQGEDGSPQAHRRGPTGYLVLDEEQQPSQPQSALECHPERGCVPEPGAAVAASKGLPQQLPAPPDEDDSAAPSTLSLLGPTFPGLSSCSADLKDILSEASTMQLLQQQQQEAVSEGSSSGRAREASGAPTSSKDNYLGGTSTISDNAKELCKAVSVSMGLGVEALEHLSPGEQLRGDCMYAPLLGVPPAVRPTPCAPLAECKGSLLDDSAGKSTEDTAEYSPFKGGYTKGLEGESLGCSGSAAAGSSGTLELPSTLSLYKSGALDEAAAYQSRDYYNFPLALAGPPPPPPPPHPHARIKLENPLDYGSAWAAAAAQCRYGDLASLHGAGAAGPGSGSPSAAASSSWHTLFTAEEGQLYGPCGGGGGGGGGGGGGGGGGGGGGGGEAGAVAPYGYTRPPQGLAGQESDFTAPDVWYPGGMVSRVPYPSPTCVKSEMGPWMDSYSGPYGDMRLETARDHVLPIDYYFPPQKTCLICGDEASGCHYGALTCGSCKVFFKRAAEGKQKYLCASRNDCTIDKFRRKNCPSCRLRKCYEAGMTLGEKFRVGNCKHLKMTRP", "assay": "Down-regulation of truncated AR splice variant, western blot in CWR22rv1 cells", "assay_type": "cell-based", "conditions": "CWR22rv1 prostate cancer cell line", "description": "(§1) Due to the potential implication of AR splice variants lacking the ligand-binding domain (truncated AR) in driving the progression of CRPC, the effects of the compounds on the down-regulation of AR-3 (also called AR-V7) were determined.\n(§2) For the Western blot analyses, LNCaP or CWR22v1 prostate cancer cells were cultured. The cells were then treated with the indicated compounds and whole cell lysates were prepared using RIPA lysis buffer (Sigma Aldrich) and protease and phosphatase inhibitors (Sigma Aldrich). All of the antibodies were ordered from cell signaling technology. Protein content was determined using the Bradford Assay (Bio-Rad, Hercules, Calif., USA). Protein was subjected to SDS-PAGE and transferred onto nitrocellulosemembrane. Membranes were then incubated with secondary antibody (cell signaling technology) at room temperature for 1 hour. Bands were visualized by chemiluminescence (Millipore). Protein expression was normalized to β-actin and densitometry was carried out using Image J or ImageQuant 5.0 (Molecular Dynamics, Sunnyvale, Calif., USA)."}, "AR [2]": {"molecular_target": "T2, AR", "assay": "AR down-regulation, western blot analysis in LNCaP cells", "assay_type": "cell-based", "conditions": "at 15 μM, 24 h", "description": "For the Western blot analyses, LNCaP or CWR22v1 prostate cancer cells were cultured. The cells were then treated with the indicated compounds and whole cell lysates were prepared using RIPA lysis buffer (Sigma Aldrich) and protease and phosphatase inhibitors (Sigma Aldrich). All of the antibodies were ordered from cell signaling technology. Protein content was determined using the Bradford Assay (Bio-Rad, Hercules, Calif., USA). Protein was subjected to SDS-PAGE and transferred onto nitrocellulosemembrane. Membranes were then incubated with secondary antibody (cell signaling technology) at room temperature for 1 hour. Bands were visualized by chemiluminescence (Millipore). Protein expression was normalized to β-actin and densitometry was carried out using Image J or ImageQuant 5.0 (Molecular Dynamics, Sunnyvale, Calif., USA). CWR22Rv1 cells were used for endogenous levels of splice variant AR-3. Protein levels were analyzed with respective antibodies; full length AR and β-actin antibodies were purchased from cell signaling, antibody specific for splice variant AR-3 was obtained from Dr. Yun Qiu, University of Maryland, School of Medicine, Baltimore."}, "full-length AR": {"system": "full-length AR", "assay": "Down-regulation of full-length AR, western blot in CWR22rv1 cells", "assay_type": "cell-based, human", "conditions": "CWR22rv1 prostate cancer cell line", "description": "as §1, §2"}}, "note": "pIC50: −log10 of the molar value. “And” between values parts separate entries of the source, which are not always exact repeats. Identical values can stand only once."}
{"smiles": "C[C@]12CC[C@H](OC(=O)n3ccnc3)CC1=CC[C@@H]1[C@@H]2CC[C@]2(C)C(n3cnc4ccccc43)=CC[C@@H]12", "note": "[Compound 47, 3β-(1H-Imidazole-1-carboxylate)-17-(1H-benzimidazol-1-yl)-androsta-5,16-diene]", "values": [{"measurement": "GI50", "setting": "LNCaP cells; Homo sapiens, LNCaP, 168 h, LNCaP, MTT, 7 days, Table 4, read-out: GI50 of C-3 modified compounds", "value": 0.87, "unit": "µM"}, {"measurement": "fold superior anti-proliferative activity", "setting": "LNCaP cells; relative to compound 5", "value": "~4", "unit": "fold"}, {"measurement": "pIC50", "setting": "human CYP17A1 (CYP171dH)", "value": "3.59 to 4.03 and 3.91"}, {"measurement": "melting point", "value": "194 to 196", "unit": "°C"}, {"measurement": "AR levels in the nucleus", "setting": "AR [1]", "value": "significant decrease in AR levels in the nucleus"}, {"measurement": "inhibition at 30 µM", "setting": "AR in LNCaP cells", "value": 20, "unit": "%"}, {"measurement": "down-regulation of truncated AR (AR-3)", "setting": "AR-3 (also called AR-V7)", "value": "significant down-regulation"}, {"measurement": "AR down-regulation, fold more active than compound 5", "setting": "AR [2]", "value": "greater than 8 fold"}, {"measurement": "down-regulation of full-length AR", "setting": "full-length AR", "value": "significant down-regulation"}]}
